Measurements from US20140228418A1, “COMBINATION THERAPY OF HSP90 INHIBITORY COMPOUNDS WITH MEK INHIBITORS” (Synta Pharmaceuticals Corp., priority 2011, published 2014).

Assays:
Format in all cases: cell-based, Human
ERK = assay: Western blotting of MAPK pathway analytes in A375 cells treated for 24 hr; conditions: A375 melanoma cells with constitutively activated MAPK, FIG. 1
Experimental: (§1) Human H1666 NSCLC (BRAFG466V mutant) and A375 melanoma cells (BRAFV600E mutant) were purchased from the American Type Culture Collection (Manassas, Va.) and grown in RPMI or DMEM, respectively, in the presence of fetal bovine serum (10%), 2 mM L-glutamine and antibiotics (100 IU/ml penicillin and 100 μg/ml streptomycin) purchased from Sigma Aldrich. Cells were maintained at 37° C., 5% CO2 atmosphere.
Cells, treated with compound for 24 hr, were lysed in RIPA buffer (CST, Danvers, Mass., USA) on ice and clarified by centrifugation. Equal amounts of proteins were resolved by SDS-PAGE and immunoblotted with indicated antibodies. The antigen-antibody complex was visualized and quantitated using an Odyssey system (LI-COR, Lincoln, Nebr., USA).
The mitogen-activated protein kinase (MAPK) signal transduction cascade is dysregulated in a majority of human tumors.

[1] = tested on: A375 melanoma cells (BRAFV600E mutant); assay: Cell viability (Cell Titer-Glo) in A375 melanoma cells, single agents and matrix combination; conditions: for cells killed / concentration that killed 100% of the cells: 72 hr; for cells killed: FIG. 3; for concentration that killed 100% of the cells: FIG. 2; for IC50: Homo sapiens, A-375, 72 hr, FIG. 2, read-out: concentration that killed 50% of the cells
Experimental: as §1
(§2) Cell viability was measured using the Cell Titer-Glo assay (Promega). In brief, cells were plated in 96-well plates in triplicate at optimal seeding density (determined empirically for each cell line) and incubated at 37° C., 5% CO2 atmosphere for 24 hr prior to the addition of drug or vehicle (0.3% DMSO) to the culture medium. At the end of the assay, Cell Titer-Glow was added to the wells per manufactures recommendation, shaken for two minutes and incubated for 10 minutes at room temperature. Luminescence (0.1 sec) was measured with a Victor II microplate reader (Perkin Elmer) and the resulting data were used to calculate cell viability, normalized to vehicle control.
Matrix style combinations between AZD6244 and Ganetespib were performed in A375 melanoma cells. Cells were exposed to AZD6244, ganetespib or the combination of the two concurrently for 72 hr and viability was assessed.
Combination Index (CI) was then determined using the median effect analysis software CalcuSyn 2.0 (CalcuSyn, Inc.). A Combination Index greater than one, equal to one or less than one indicates antagonism, additivity and synergism, respectively.

[2] = tested on: H1666 NSCLC (BRAFG466V mutant); assay: Cell viability (Cell Titer-Glo) in H1666 NSCLC cells, single agents and combination; conditions: FIG. 5
Experimental: as §1, §2
The combination of ganetespib and AZD6244 was performed in the NSCLC cell line H1666. Similar to A375 cells, the combination of both compounds yielded greater anticancer activity than monotherapy. […]

| Structure (SMILES) | disruption of activation of the MEK substrate ERK / abrogation of ERK activity (western blot) (ERK) | cells killed ([1]; AZD6244 24 nM alone) [%] | concentration that killed 100% of the cells [1] [nM] | IC50 [1] [nM] | cells killed ([2]; AZD6244 118 nM alone) | cells killed ([1]; ganetespib 30 nM alone) [%] | cells killed ([2]; ganetespib 68 nM alone) |
| --- | --- | --- | --- | --- | --- | --- | --- |
| Cn1cnc2c(F)c(Nc3ccc(Br)cc3Cl)c(C(=O)NOCCO)cc21 [AZD6244, 6-(4-bromo-2-chloro-phenylamino)-7-fluoro-3-methyl-3H-benzoimidazole-5-carboxylic acid (2-hydroxy-ethoxy)-amide] | highly effective | 10 | 228 | 65 | approximately 50% |  |  |
| CC(C)c1cc(-c2nnc(O)n2-c2ccc3c(ccn3C)c2)c(O)cc1O [ganetespib, 3-(2,4-dihydroxy-5-isopropyl-phenyl)-4-(1-methyl-indol-5-yl)-5-hydroxy-[1,2,4] triazole] | highly effective |  | 35 | 15 |  | 20 | approximately 50% |
